We go through eight molecules from patent US20210323976A1, “HETEROARYL COMPOUNDS FOR KINASE INHIBITION” (ARIAD Pharmaceuticals, Inc., priority 2015, published 2021).

What all share (format): cell-based
For test [1], the target named is T1, EGFR exon 21 L858R and T790M mutation (Homo sapiens, UniProt P00533, L858R/T790M).
T1 construct: expressed in transfected cells; host or cells: Ba/F3 (murine pro-B) cells, lentiviral transduction with pLVX-IRES puro
Description: Ba/F3-EGFR L858R/T790M cell anti-proliferation assay (MTS). The conditions noted are these: Ba/F3-EGFR L858R/T790M cells, 72 h, MTS signal. An excerpt:
A compound's ability in selectively inhibiting EGFR L858R and T790M concurrent mutations can be assessed using Ba/F3 cells, a murine pro-B cell line, which have been transduced with EGFR L858R and T790M double mutations. An expression vector, pLVX-IRES puro (Clontech) coding for human EGFR L858R and T790M double mutation, was transfected into HEK293 cells by the Trans-Lentiviral ORF Packaging System (Thermo Scientific), to produce virus encoding EGFR L858R and T790M double mutations. Ba/F3 (DSMZ) cells maintained in RPM11640 medium supplemented with 10% fetal bovine serum, 200 pM L-glutamine/200 μg/mL penicillin/200 μg/mL streptomycin (Life Technology) and 10 ng/mL IL-3 (R&D system), were infected by EGFR L858R and T790M double mutation virus and subsequently selected by puromycin (Life Technology) selection and IL-3 depletion. Ba/F3 cells expressing EGFR L858R and T790M double mutation (named Ba/F3-EGFR L858R/T790M) can proliferate in the absence of IL-3. The anti-proliferative activity of compounds was determined as follows: BaF3-EGFR L858R/T790M cells seeded in 96 well plates (2500 cells/well) were treated with test compound (dissolved in DMSO) at a series of concentrations (4-fold dilution, top concentration: 10,000 nM). The plates were incubated for 72 h in a 37° C. incubator with 5% CO2, and the number of viable cells in each well were measured indirectly by CellTiter 96® Aqueous One Solution Cell Proliferation Assay (Promega; this assay is a colorimetric method for determining the number of viable cells through measurement of their metabolic activity by detection of enzymatic conversion of tetrazolium salts into blue formazan derivatives). Reagent (20 pL) was added into each well, and the plates were returned to the incubator for 2 h. The absorbance in each well was then measured at 490 nm using an Envision plate reader (Perkin Elmer). IC50 values were calculated by determining the concentration of compound required to decrease the MTS signal by 50% comparing to the DMSO control in best-fit curves using Microsoft XLfit software or Accelrys Pipeline Pilot.

In test [2] the target is T2, EGFR exon 20 ASV insertion (V769_D770insASV) (Homo sapiens, UniProt P00533, INS769ASV).
T2 construct: expressed in transfected cells; host or cells: Ba/F3 (murine pro-B) cells, lentiviral transduction with pLVX-IRES puro
The test can be described thus: Ba/F3-EGFR-Exon20-ASV cell anti-proliferation assay (MTS, CellTiter 96 AQueous One). As to conditions: Ba/F3-EGFR-Exon20-ASV cells, 72 h, MTS signal. An excerpt: A compound's ability in selectively inhibiting EGFR exon 20 insertion mutations can be assessed using Ba/F3 cells, a murine pro-B cell line, which have been transduced with EGFR exon 20 insertions. An expression vector, pLVX-IRES puro (Clontech) coding for human EGFR exon 20 insertions NPG (H773_V774insNPG) or ASV (V769_D770insASV), was transfected into HEK293 cells by the Trans-Lentiviral ORF Packaging System (Thermo Scientific), to produce virus encoding EGFR exon 20 insertions. Ba/F3 (DSMZ) cells maintained in RPM11640 medium supplemented with 10% fetal bovine serum, 200 pM L-glutamine/200 µg/mL penicillin/200 µg/mL streptomycin (Life Technology) and 10 ng/mL IL-3 (R&D system), were infected by EGFR Exon20 virus and subsequently selected by puromycin (Life Technology) selection and IL-3 depletion. Ba/F3 cells expressing EGFR exon 20 insertions (named Ba/F3-EGFR-Exon20-NPG or Ba/F3-EGFR-Exon20-ASV) can proliferate in the absence of IL-3. The anti-proliferative activity of compounds were determined as follows: BaF3-EGFR-Exon20 cells (NPG or ASV) seeded in 96 well plates (2500 cells/well) were treated with test compound (dissolved in DMSO) at a series of concentrations (4-fold dilution, top concentration: 10,000 nM). The plates were incubated for 72 h in a 37° C. incubator with 5% CO2, and the number of viable cells in each well were measured indirectly by CellTiter 96® Aqueous One Solution Cell Proliferation Assay (Promega) This assay is a colorimetric method for determining the number of viable cells through measurement of their metabolic activity by detection of enzymatic conversion of tetrazolium salts into blue formazan derivatives. Reagent (20 pL) was added into each well, and the plates were returned to the incubator for 2 h. The absorbance in each well was then measured at 490 nm using an Envision plate reader (Perkin Elmer). IC50 values were calculated by determining the concentration of compound required to decrease the MTS signal by 50% comparing to the DMSO control in best-fit curves using Microsoft XLfit software or Accelrys Pipeline Pilot.

Test [3] addresses T3, Her2 exon 20 YVMA insertion (A775_G776ins YVMA) (Homo sapiens, UniProt P04626, INS775YVMA).
T3 construct: expressed in transfected cells; host or cells: Ba/F3 (murine pro-B) cells, lentiviral transduction with pLVX-IRES puro
Description: Ba/F3-Her2 Exon20 YVMA cell anti-proliferation assay (MTS). The conditions noted are these: Ba/F3-Her2 Exon20 YVMA cells, 72 h, MTS signal. From the text:
A compound's ability in selectively inhibiting Her2 exon 20 YVMA insertion mutations can be assessed using Ba/F3 cells, a murine pro-B cell line, which have been transduced with Her2 Exon20 YVMA insertions. An expression vector, pLVX-IRES puro (Clontech) coding for human EGFR exon 20 insertions YVMA (A775_G776ins YVMA), was transfected into HEK293 cells by the Trans-Lentiviral ORF Packaging System (Thermo Scientific), to produce virus encoding EGFR exon 20 insertions. Ba/F3 (DSMZ) cells maintained in RPM11640 medium supplemented with 10% fetal bovine serum, 200 pM L-glutamine/200 μg/mL penicillin/200 μg/mL streptomycin (Life Technology) and 10 ng/mL IL-3 (R&D system), were infected by EGFR Exon20 virus and subsequently selected by puromycin (Life Technology) selection and IL-3 depletion. Ba/F3 cells expressing Her2 Exon20 YVMA insertions (named Ba/F3-Her2 Exon20 YVMA) can proliferate in the absence of IL-3. The anti-proliferative activity of compounds was determined as follows: BaF3-Her2 Exon20 YVMA cells seeded in 96 well plates (2500 cells/well) were treated with test compound (dissolved in DMSO) at a series of concentrations (4-fold dilution, top concentration: 10,000 nM). The plates were incubated for 72 h in a 37° C. incubator with 5% CO2, and the number of viable cells in each well were measured indirectly by CellTiter 96® Aqueous One Solution Cell Proliferation Assay (Promega; this assay is a colorimetric method for determining the number of viable cells through measurement of their metabolic activity by detection of enzymatic conversion of tetrazolium salts into blue formazan derivatives). Reagent (20 pL) was added into each well, and the plates were returned to the incubator for 2 h. The absorbance in each well was then measured at 490 nm using an Envision plate reader (Perkin Elmer). IC50 values were calculated by determining the concentration of compound required to decrease the MTS signal by 50% comparing to the DMSO control in best-fit curves using Microsoft XLfit software or Accelrys Pipeline Pilot.

T2 sequence (P00533 with tags, fused parts or gaps INS769ASV): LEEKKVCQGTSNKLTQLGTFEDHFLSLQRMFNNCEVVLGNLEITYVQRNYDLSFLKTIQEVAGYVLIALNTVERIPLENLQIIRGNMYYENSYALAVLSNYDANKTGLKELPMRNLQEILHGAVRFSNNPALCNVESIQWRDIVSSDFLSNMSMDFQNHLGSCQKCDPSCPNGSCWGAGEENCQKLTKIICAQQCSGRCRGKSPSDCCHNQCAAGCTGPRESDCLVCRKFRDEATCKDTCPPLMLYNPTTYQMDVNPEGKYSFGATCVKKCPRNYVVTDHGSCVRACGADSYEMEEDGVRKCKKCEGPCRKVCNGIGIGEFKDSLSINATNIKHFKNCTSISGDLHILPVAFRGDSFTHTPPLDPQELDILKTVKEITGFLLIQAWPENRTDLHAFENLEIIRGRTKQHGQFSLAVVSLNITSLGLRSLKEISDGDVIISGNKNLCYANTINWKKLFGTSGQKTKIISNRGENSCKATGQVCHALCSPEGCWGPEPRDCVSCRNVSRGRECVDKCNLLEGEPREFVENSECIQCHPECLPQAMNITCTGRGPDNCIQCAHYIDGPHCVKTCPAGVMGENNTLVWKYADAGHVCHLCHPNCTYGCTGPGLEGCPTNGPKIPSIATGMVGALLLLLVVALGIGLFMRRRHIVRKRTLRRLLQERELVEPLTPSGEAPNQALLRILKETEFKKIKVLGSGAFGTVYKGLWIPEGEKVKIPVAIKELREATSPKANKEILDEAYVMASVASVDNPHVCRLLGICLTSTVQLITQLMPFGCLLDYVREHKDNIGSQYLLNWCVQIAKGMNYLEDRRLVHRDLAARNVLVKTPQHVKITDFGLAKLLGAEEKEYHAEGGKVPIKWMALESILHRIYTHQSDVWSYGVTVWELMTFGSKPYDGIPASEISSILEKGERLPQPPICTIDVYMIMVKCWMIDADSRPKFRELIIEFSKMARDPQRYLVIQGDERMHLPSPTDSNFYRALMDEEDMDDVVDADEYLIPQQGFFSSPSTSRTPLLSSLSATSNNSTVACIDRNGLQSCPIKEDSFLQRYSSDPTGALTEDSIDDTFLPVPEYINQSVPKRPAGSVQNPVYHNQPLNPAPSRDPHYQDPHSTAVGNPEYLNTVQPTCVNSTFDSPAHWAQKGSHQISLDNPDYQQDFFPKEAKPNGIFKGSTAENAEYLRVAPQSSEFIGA
T1 sequence (P00533 25-1210 T790M/L858R): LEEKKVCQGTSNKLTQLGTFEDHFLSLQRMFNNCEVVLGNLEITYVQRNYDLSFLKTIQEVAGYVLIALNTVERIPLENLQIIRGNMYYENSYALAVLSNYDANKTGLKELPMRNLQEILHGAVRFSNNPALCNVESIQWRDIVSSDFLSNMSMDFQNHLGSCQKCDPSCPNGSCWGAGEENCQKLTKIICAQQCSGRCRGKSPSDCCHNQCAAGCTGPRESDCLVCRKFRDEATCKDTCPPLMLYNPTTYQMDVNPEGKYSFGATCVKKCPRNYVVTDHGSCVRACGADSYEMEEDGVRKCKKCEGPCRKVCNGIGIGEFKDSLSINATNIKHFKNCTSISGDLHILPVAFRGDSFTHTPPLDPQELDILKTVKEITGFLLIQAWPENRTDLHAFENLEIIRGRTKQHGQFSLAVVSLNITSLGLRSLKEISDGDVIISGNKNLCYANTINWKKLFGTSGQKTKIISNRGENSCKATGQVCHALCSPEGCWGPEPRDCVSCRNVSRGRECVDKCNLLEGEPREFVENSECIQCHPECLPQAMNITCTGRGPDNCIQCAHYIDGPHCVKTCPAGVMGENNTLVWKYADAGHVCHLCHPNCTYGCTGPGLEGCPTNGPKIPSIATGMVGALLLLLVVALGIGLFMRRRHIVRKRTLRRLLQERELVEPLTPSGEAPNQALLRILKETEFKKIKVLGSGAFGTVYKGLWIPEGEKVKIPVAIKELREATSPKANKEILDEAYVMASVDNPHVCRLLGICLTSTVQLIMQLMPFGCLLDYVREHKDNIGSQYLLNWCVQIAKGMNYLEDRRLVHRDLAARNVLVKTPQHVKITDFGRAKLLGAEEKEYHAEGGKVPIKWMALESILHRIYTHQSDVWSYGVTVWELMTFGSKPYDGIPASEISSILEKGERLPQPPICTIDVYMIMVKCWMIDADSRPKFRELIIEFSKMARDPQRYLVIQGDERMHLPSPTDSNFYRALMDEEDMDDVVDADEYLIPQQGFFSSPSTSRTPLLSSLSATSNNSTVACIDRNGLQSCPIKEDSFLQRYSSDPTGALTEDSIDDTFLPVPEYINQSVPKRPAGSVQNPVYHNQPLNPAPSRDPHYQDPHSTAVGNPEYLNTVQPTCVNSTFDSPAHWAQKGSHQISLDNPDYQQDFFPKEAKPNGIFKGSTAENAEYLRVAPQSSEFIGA
T3 sequence (P04626 with tags, fused parts or gaps INS775YVMA): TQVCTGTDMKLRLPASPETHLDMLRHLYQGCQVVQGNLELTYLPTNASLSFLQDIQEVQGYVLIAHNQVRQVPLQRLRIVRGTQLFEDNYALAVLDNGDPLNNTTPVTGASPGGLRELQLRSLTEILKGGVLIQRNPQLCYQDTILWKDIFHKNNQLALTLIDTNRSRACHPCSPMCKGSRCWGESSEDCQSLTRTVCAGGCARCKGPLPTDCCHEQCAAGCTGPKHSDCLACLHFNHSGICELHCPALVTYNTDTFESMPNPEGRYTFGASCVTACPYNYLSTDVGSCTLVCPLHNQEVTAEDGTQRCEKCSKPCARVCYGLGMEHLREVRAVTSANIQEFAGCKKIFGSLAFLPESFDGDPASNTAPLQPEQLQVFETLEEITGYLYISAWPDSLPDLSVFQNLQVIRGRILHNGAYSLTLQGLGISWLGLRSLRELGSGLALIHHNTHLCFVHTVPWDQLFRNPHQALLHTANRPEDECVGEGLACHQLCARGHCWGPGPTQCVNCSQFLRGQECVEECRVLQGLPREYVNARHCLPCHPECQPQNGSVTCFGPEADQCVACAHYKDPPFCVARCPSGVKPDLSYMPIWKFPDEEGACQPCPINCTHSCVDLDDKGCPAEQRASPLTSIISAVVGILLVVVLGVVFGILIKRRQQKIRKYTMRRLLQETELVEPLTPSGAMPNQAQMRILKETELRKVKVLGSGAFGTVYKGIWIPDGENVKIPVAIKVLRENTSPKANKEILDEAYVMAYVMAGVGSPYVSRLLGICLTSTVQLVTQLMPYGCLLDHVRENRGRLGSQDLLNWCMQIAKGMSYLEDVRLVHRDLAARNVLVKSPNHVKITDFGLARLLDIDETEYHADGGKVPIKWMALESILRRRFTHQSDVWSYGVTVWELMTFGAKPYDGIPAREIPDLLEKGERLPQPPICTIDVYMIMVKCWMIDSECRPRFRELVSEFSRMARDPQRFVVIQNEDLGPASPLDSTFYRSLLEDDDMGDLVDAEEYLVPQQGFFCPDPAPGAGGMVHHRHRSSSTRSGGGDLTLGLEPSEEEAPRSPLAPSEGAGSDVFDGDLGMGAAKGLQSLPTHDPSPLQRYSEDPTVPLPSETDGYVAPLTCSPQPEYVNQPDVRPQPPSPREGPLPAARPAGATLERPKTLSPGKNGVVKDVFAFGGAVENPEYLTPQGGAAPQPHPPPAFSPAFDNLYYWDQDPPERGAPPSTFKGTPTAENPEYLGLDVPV

For `C=CC(=O)Nc1cc(Nc2nccc(-c3c4n(c5ccccc35)CCOC4)n2)c(OC)cc1N(C)CCN(C)C` [Example 1, N-(5-((4-(3,4-dihydro-1H-[1,4]oxazino[4,3-a]indol-10-yl)pyrimidin-2-yl)amino)-2-((2-(dimethylamino)ethyl)(methyl)amino)-4-methoxyphenyl)acrylamide], the “EGFR exon 21 L858R and T790M mutation IC50” value in test [1] was “A (Group A compounds have an IC50 value for the indicated mutant below about 100 nM)”. Besides, the concentration for half-maximal inhibition (IC50) in test [2] was < 100 nM; in test [3] it was 100 to 500 nM.

As to `C=CC(=O)Nc1cc(Nc2nccc(-c3c4n(c5ccccc35)CCN(C)C4=O)n2)c(OC)cc1N(C)CCN(C)C` [Example 2, N-(2-((2-(dimethylamino)ethyl)(methyl)amino)-4-methoxy-5-((4-(2-methyl-1-oxo-1,2,3,4-tetrahydropyrazino[1,2-a]indol-10-yl)pyrimidin-2-yl)amino)phenyl)acrylamide], the “EGFR exon 21 L858R and T790M mutation IC50” value in test [1] is given as “A (Group A compounds have an IC50 value for the indicated mutant below about 100 nM)”. Besides, the concentration for half-maximal inhibition (IC50) was 100 to 500 nM in test [2] and > 1000 nM in test [3].

For the molecule `C=CC(=O)Nc1cc(Nc2nccc(-c3c4n(c5ccccc35)CC(O)CC4)n2)c(OC)cc1N(C)CCN(C)C` (stereo not drawn) [Example 3, N-(2-((2-(dimethylamino)ethyl)(methyl)amino)-5-((4-(7-hydroxy-6,7,8,9-tetrahydropyrido[1,2-a]indol-10-yl)pyrimidin-2-yl)amino)-4-methoxyphenyl)acrylamide], in test [1], the “EGFR exon 21 L858R and T790M mutation IC50” value is given as “A (Group A compounds have an IC50 value for the indicated mutant below about 100 nM)”. Also, the figures for the IC50 in test [2] and in test [3] were < 100 nM and 100 to 500 nM, respectively.

Regarding `C=CC(=O)Nc1cc(Nc2nccc(-c3c4n(c5ccccc35)CC3OC(C)(C)OC3C4)n2)c(OC)cc1N(C)CCN(C)C` (stereo not drawn) [Example 4, N-(5-((4-(cis-2,2-dimethyl-3a,4,11,11a-tetrahydro-[1,3]dioxolo[4′,5′:4,5]pyrido[1,2-a]indol-10-yl)pyrimidin-2-yl)amino)-2-((2-(dimethylamino)ethyl)(methyl)amino)-4-methoxyphenyl)acrylamide], the “EGFR exon 21 L858R and T790M mutation IC50” value in test [1] is “A (Group A compounds have an IC50 value for the indicated mutant below about 100 nM)”. Besides, the IC50 in test [2] and in test [3] was < 100 nM in each case.

With `C=CC(=O)Nc1cc(Nc2nccc(-c3c4n(c5ccccc35)CCCC4)n2)c(OC)cc1N(C)CCN(C)C` [Example 5, N-(2-((2-(dimethylamino)ethyl)(methyl)amino)-4-methoxy-5-((4-(6,7,8,9-tetrahydropyrido[1,2-a]indol-10-yl)pyrimidin-2-yl)amino)phenyl)acrylamide], in test [1], the “EGFR exon 21 L858R and T790M mutation IC50” value was “A (Group A compounds have an IC50 value for the indicated mutant below about 100 nM)”. In addition, the 50% inhibitory concentration (IC50) was < 100 nM in test [2] and 100 to 500 nM in test [3].

In the case of `C=CC(=O)Nc1cc(Nc2nccc(-c3c4n(c5ccccc35)CC(O)C(O)C4)n2)c(OC)cc1N(C)CCN(C)C` (stereo not drawn) [Example 6, N-(5-((4-(cis-7,8-dihydroxy-6,7,8,9-tetrahydropyrido[1,2-a]indol-10-yl)pyrimidin-2-yl)amino)-2-((2-(dimethylamino)ethyl)(methyl)amino)-4-methoxyphenyl)acrylamide], the “EGFR exon 21 L858R and T790M mutation IC50” value in test [1] is on record as “A (Group A compounds have an IC50 value for the indicated mutant below about 100 nM)”. For the same molecule, the results for the IC50 in test [2] and in test [3] were < 100 nM and 100 to 500 nM, respectively.

`C=CC(=O)Nc1cc(Nc2nccc(-c3c4n(c5ccccc35)CC(OC)CC4)n2)c(OC)cc1N(C)CCN(C)C` (stereo not drawn) [Example 7, N-(2-((2-(dimethylamino)ethyl)(methyl)amino)-4-methoxy-5-((4-(7-methoxy-6,7,8,9-tetrahydropyrido[1,2-a]indol-10-yl)pyrimidin-2-yl)amino)phenyl)acrylamide]: the “EGFR exon 21 L858R and T790M mutation IC50” value in test [1] is “A (Group A compounds have an IC50 value for the indicated mutant below about 100 nM)”. The IC50 in test [2] is < 100 nM; in test [3], 100 to 500 nM.

For the molecule `C=CC(=O)Nc1cc(Nc2nccc(-n3c4c(c5ccccc53)CC(O)CC4)n2)c(OC)cc1N(C)CCN(C)C` (stereo not drawn) [Example 10, N-(2-((2-(dimethylamino)ethyl)(methyl)amino)-5-((4-(3-hydroxy-1,2,3,4-tetrahydro-9H-carbazol-9-yl)pyrimidin-2-yl)amino)-4-methoxyphenyl)acrylamide], in test [1], the “EGFR exon 21 L858R and T790M mutation IC50” value is recorded as “A (Group A compounds have an IC50 value for the indicated mutant below about 100 nM)”. The half-maximal inhibitory concentration (IC50) in test [2] and in test [3] was < 100 nM in each case.
